# Entries after “also recorded” stand apart in the source; their conditions may differ. Where two headings read alike, the source gives them in different places.
# What was measured:
# human CB1 receptor [1] = biological target: T1, human CB1 receptor (Homo sapiens, UniProt P21554); format: binding; details: for Effect on binding of agonist CP55,940 (in words): [3H]CP55,940 tracer, modulator 1 nM–10 µM
# [2] = Computational prediction of physicochemical properties and solubility
# CB1 [3] = details: CP55,940 as the tracer; cited from earlier work
# human CB1 receptor [4] = biological target: T1, human CB1 receptor; format: binding; details: for cooperativity factor: [3H]SR141716A (1 nM) as orthosteric inverse agonist; for Effect on SR141716A binding (in words): [3H]SR141716A tracer, modulator 1 nM–10 µM
# CB1 [5] = details: cited from earlier work
# CB1 [6] = details: cited from earlier work; remark: listed apart in the source
# CB1 [7] = details: cited from earlier work; remark: listed apart in the source
# rats = details: cited from earlier work
# [8] = read-out: KB (equilibrium dissociation), [3H]CP55,940 (0.5 nM) as orthosteric ligand, 95% CI in parentheses, NB = no detectable binding with test compound up to 10 µM
# [9] = on introducing ethanolamine into LDK1321 (6a) and LDK1324 (6b)
# T1 sequence (P21554 whole entry): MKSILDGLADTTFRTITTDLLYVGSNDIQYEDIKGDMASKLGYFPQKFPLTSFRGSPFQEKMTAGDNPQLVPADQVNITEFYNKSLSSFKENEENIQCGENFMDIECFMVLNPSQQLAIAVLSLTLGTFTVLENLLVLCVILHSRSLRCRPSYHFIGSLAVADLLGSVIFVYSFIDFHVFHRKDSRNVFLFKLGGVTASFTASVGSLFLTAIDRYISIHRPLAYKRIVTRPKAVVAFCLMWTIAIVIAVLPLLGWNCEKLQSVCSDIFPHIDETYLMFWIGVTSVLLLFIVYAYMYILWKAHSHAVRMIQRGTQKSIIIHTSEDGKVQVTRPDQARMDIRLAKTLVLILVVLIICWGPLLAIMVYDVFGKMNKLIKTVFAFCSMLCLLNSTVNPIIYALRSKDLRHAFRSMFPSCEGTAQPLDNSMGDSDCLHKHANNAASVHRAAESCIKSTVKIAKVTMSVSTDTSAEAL
SMILES,"Effect on binding of agonist CP55,940 (in words) (human CB1 receptor [1])",Kb (human CB1 receptor [1]; [8]),Kb (human CB1 receptor [1]),cooperativity factor (human CB1 receptor [4]),Effect on SR141716A binding (in words) (human CB1 receptor [4]),other results
"N#Cc1ccc(NC(=O)Nc2ccc3cc[nH]c3c2)cc1 [LDK1319, 1-(4-Cyanophenyl)-3-(1H-indol-6-yl)urea]",no binding,> 10000 nM,,,,
"CC(=O)Nc1cccc(NC(=O)Nc2ccc(C#N)cc2)c1 [LDK1317, N-(3-(3-(4-Cyanophenyl)ureido)phenyl)acetamide]","enhanced the binding of agonist CP55,940 to some degree",,110 nM,,,
"N#Cc1ccc(NC(=O)Nc2ccc3[nH]ccc3c2)cc1 [LDK1318, 1-(4-Cyanophenyl)-3-(1H-indol-5-yl)urea]",no binding,> 10000 nM,,,,
"N#Cc1ccc(NC(=O)Nc2cccc(-c3cccc(NCCO)n3)c2)cc1 [LDK1325, 1-(4-Cyanophenyl)-3-(3-(6-((2-hydroxyethyl)amino)pyridin-2-yl)phenyl)urea]",,> 10000 nM,,,,"Effect on binding of agonist CP55,940 (in words) (human CB1 receptor [1]; listed as LDK1325 (8b)): no binding; also recorded: lost its binding affinity; Enhancement of calculated intrinsic solubility [2, 9]: approximately 20 fold"
N#Cc1ccc(NC(=O)Nc2cccc(-c3cccc(N4CCCC4)n3)c2)cc1,,,,,,EC50 (CB1 [3]): 55 nM
"N#Cc1ccc(NC(=O)Nc2cccc(-c3cccc(Cl)n3)c2)cc1 [LDK1324, 1-(3-(6-Chloropyridin-2-yl)phenyl)-3-(4-cyanophenyl)urea]",,,300 nM,< 1,"robust, dose-dependent decrease","Effect on binding of agonist CP55,940 (in words) (human CB1 receptor [1]; listed as LDK1324 (6b)): enhanced the binding of agonist CP55,940 to some degree"
"N#Cc1ccc(NC(=O)Nc2cccc(-c3ccnc(NCCO)n3)c2)cc1 [LDK1323, 1-(4-Cyanophenyl)-3-(3-(2-((2-hydroxyethyl)amino)pyrimidin-4-yl)phenyl)urea]",,,200 nM,< 1,modest decrease,"Effect on binding of agonist CP55,940 (in words) (human CB1 receptor [1]; listed as LDK1323 (8a)): enhanced the binding of agonist CP55,940 to some degree; also recorded: modest, but positive influence; Enhancement of calculated intrinsic solubility [2, 9]: approximately 20 fold"
"N#Cc1ccc(NC(=O)Nc2cccc(-c3ccnc(Cl)n3)c2)cc1 [LDK1321, 1-(3-(2-Chloropyrimidin-4-yl)phenyl)-3-(4-cyanophenyl)urea]",,,85 nM,< 1,"robust, dose-dependent decrease","Effect on binding of agonist CP55,940 (in words) (human CB1 receptor [1]; listed as LDK1321 (6a)): enhanced the binding of agonist CP55,940 to some degree; also recorded: successful in enhancing the binding of agonist CP55,940"
"CN(C)c1ccc(NC(=O)Nc2ccc(C#N)cc2)cc1 [LDK1320, 1-(4-Cyanophenyl)-3-(4-(dimethylamino)phenyl)urea]",,,830 nM,,,"Effect on binding of agonist CP55,940 (in words) (human CB1 receptor [1]; listed as LDK1320 (12b)): enhanced the binding of agonist CP55,940 to some degree; Enhancement of calculated intrinsic solubility ([2]; vs PSNCBAM-1, on reducing the number of rings to 2): about 400 fold"
"O=C(Nc1ccc(Cl)cc1)Nc1cccc(-c2cccc(N3CCCC3)n2)c1 [PSNCBAM-1, 1-(4-Chlorophenyl)-3-{3-[6-(pyrrolidin-1-yl)pyridin-2-yl]phenyl} urea]",,,,,,"Effect on binding of the CB1 agonist CP55,940 (CB1 [5]): enhanced binding; Effect on binding of the inverse agonist SR141716A (CB1 [5]): reducing the binding; Effect in GTPγS assay (CB1 [6]): noncompetitive, inhibitory effects; Effect in cAMP assay (CB1 [7]): noncompetitive, inhibitory effects; Food intake and body weight (rats): reduced food intake and body weight"
